Common to all, as to type: cell-based
The subject of test [1] is AKT. Put plainly: Inhibition of AKT phosphorylation on S473 in PC3 cells. Here is the method: (§1) (FIG. 2A) Dose-response curves for EphA2 autophosphorylation on tyrosine 588 (pY588; purple) and for downstream inhibition of AKT phosphorylation (magenta). PC3 cells were treated for 15 min with different concentrations of the indicated peptides. […] The graphs show quantifications from multiple blots (averages ±SE; the number of experiments used to generate each curve is shown in Table 3). […] (FIG. 2B) Examples of immunoblots of lysates from PC3 cells treated with the indicated concentrations of representative ligands. […] A white vertical line indicates removal of irrelevant lanes. […] The bars show averages ±SE, and the individual measurements are shown as black dots. […] Plots of Etop versus EC50 for pY588 in FIG. 2D and for pAKT inh in FIG. 2E. Averages ±SE are shown for the peptides and ephrinA1.

The target in test [2] is T1, EphA2 (Homo sapiens, UniProt P29317). Description: Quantitative FRET of EphA2 oligomerization in transiently transfected HEK293 cells. The arrangement: expressed in transfected cells; host or cells: HEK293 (HEK293T), transient transfection. The text has this: FIG. 4A-4E illustrates an example where dimers with different configurations induce EphA2 oligomerization and patching on the cell surface. (FIG. 4A-4D) Oligomerization curves comparing EphA2 WT and the G131Y and L223R/L254R/[…] interface mutants transiently expressed in HEK293 cells and treated with saturating concentrations of C-terminally linked dimer (2) or N-terminally linked dimer (5). The curves were obtained by fitting quantitative FRET data to monomer-oligomer models. […] Curves for higher order oligomerization are steeper than dimerization curves. (FIG. 4E) Two-photon integrated fluorescence images of HEK293 cells expressing EphA2-EYFP and EphA2-mTURQ and under hypo-osmotic conditions. The plasma membrane regions in the rectangular yellow outlines are enlarged in the insets at the bottom of each panel. […]
T1 sequence (P29317 24-976): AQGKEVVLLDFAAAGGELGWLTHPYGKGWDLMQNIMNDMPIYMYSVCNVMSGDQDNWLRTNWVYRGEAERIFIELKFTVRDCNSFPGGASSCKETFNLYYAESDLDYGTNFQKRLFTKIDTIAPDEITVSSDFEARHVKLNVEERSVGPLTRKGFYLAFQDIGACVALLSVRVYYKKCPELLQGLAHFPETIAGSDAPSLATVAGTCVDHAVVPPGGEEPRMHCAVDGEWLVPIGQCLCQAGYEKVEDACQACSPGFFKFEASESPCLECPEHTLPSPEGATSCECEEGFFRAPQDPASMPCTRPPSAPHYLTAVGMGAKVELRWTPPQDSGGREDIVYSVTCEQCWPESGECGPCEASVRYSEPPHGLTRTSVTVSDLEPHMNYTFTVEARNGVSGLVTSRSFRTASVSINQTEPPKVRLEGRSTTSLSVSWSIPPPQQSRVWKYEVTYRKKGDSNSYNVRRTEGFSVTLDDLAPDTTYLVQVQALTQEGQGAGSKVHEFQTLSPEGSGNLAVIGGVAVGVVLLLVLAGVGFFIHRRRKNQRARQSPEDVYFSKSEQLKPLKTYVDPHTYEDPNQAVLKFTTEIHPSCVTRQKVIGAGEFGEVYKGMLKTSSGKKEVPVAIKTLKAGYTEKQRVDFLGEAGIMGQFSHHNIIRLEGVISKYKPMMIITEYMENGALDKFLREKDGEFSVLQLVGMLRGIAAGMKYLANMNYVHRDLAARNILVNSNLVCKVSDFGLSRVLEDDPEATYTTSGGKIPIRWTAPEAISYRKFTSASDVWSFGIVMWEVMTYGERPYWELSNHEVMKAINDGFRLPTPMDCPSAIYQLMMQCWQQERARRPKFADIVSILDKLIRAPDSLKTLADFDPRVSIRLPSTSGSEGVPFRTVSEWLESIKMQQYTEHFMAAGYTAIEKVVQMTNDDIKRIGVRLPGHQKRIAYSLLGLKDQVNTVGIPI
To examine the effects of dimeric peptide ligands on EphA2 oligomerization (including dimerization and higher order clustering), quantitative FRET experiments were performed in live cells. […] FRET is then measured in hundreds of individual cells with different EphA2 expression levels (FIG. 12), and the data are combined to yield average oligomeric fractions at different EphA2 concentrations (FIG. 4A-4D). […]
To obtain the data points for oligomerization curves (FIG. 12), the concentration of EphA2 in each small region of plasma membrane in which FRET efficiency was measured. […]

The target in test [3] is T1, EphA2. Description: EphA2 autophosphorylation on tyrosine 588 in PC3 cells (immunoblot dose-response). Set-up: EphA2 is the prevalent endogenously expressed EphA receptor in these cells; endogenous in cells; host or cells: PC3 prostate cancer cells. Here is the method: as §1
To examine the agonistic properties of the different dimeric peptide ligands, EphA2 autophosphorylation on tyrosine 588 (Y588) was measured, which is indicative of receptor activation and mediates binding of SH2 domain-containing proteins that link EphA2 to various downstream signaling pathways (FIG. 7). For these experiments, PC3 prostate cancer cells were stimulated with the dimeric peptides because EphA2 is the prevalent endogenously expressed EphA receptor in these cells, allowing comparisons with ephrins.

SMILES strings stand for the structures.

As to `CC(C)C[C@H](NC(=O)[C@H](Cc1c[nH]c2ccccc12)NC(=O)[C@H](C)NC(=O)CNC(=O)[C@@H](N)CSSC[C@H](N)C(=O)NCC(=O)N[C@@H](C)C(=O)N[C@@H](Cc1c[nH]c2ccccc12)C(=O)N[C@@H](CC(C)C)C(=O)N[C@@H](C)C(=O)N[C@@H](Cc1ccc(O)cc1)C(=O)N1CCC[C@H]1C(=O)N[C@@H](CC(=O)O)C(=O)N[C@@H](CO)C(=O)N[C@H](C(=O)N1CCC[C@H]1C(=O)N[C@@H](Cc1ccc(O)cc1)C(=O)N[C@@H](CCCNC(=N)N)C(=O)N1CCC[C@H]1C(=O)N[C@@H](CCCCN)C(=O)O)C(C)C)C(=O)N[C@@H](C)C(=O)N[C@@H](Cc1ccc(O)cc1)C(=O)N1CCC[C@H]1C(=O)N[C@@H](CC(=O)O)C(=O)N[C@@H](CO)C(=O)N[C@H](C(=O)N1CCC[C@H]1C(=O)N[C@@H](Cc1ccc(O)cc1)C(=O)N[C@@H](CCCNC(=N)N)C(=O)N1CCC[C@H]1C(=O)N[C@@H](CCCCN)C(=O)O)C(C)C` [compound 5, CGA-WLA-YRPK dimer (N-ter)], the 50% inhibitory concentration (IC50) in test [1] (PC3 cells) was found to be 0.068 ± 0.011 nM. The EC50 is 0.09 ± 0.02 nM in test [1] (Table 3, PC3 cells treated for 15 min, read-out: ECsa pAKT inhlb.) and 0.53 ± 0.07 nM in test [3] (read-out: EC50 PY588). Further, in test [1] (Table 3, PC3 cells, 15 min, 1-pAKT/AKT normalized to cells not treated with ligand), the “Etop pAKT inhlb” value is on record as 1.0 ± 0.04. In addition, the “best-fit FRET oligomerization model, EphA2 WT” value in test [2] (saturating peptide, HEK293 cells) is on record as “higher order oligomer model”. In addition, the “EphA2 patches on the plasma membrane, EphA2 WT” value in test [2] (swollen HEK293 cells) is on record as “formation of fluorescent patches”. In test [3] (Table 3, 15 min, saturating ligand, pY588/EphA2 normalized to ephrinA1-Fc), the “Etop pY588” value is recorded as 0.87 ± 0.04. Moreover, the “Emax PY588” value in test [3] (ephrinA1Fc = 1.00) stood at 0.78 ± 0.025.
